Reference: ChEMBL document CHEMBL1909046, “DrugMatrix in vitro pharmacology data”

How the values were obtained:
[1] = biological target: Mitogen-activated protein kinase 3 (Homo sapiens, UniProt P27361); test: DRUGMATRIX: Protein Serine/Threonine Kinase, ERK1 enzyme inhibition (substrate: Myelin Basic Protein); parameters: species or system Escherichia coli; conditions: Not Active = under 50% inhibition at 10 µM
[2] = DRUGMATRIX: Calcium Channel Type L, Dihydropyridine radioligand binding (ligand: [3H] Nitrendipine); assay type: cell membranes, Rattus norvegicus, Wistar, Cerebral cortex, Membrane; conditions: Not Active = under 50% inhibition at 10 µM
[3] = biological target: T1, C-C chemokine receptor type 4 (Homo sapiens, UniProt P51679); assay type: cell membranes, Membrane; conditions: chem-1; further: in other assays of this panel Not Active means under 50% inhibition at 10 µM
T1 sequence (P51679 whole entry): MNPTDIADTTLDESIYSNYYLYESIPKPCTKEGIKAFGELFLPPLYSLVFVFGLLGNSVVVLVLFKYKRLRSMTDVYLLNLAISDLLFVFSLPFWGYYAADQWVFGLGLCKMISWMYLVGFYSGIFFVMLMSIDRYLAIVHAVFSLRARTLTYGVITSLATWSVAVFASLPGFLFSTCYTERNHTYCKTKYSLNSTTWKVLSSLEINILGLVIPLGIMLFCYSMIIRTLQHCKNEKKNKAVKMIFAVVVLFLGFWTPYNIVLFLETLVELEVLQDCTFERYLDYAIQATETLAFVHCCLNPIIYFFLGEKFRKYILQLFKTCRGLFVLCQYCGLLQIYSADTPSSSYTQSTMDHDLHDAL

[4] = DRUGMATRIX: Glutamate, NMDA, Phencyclidine radioligand binding (ligand: [3H] TCP); assay type: cell membranes, Rattus norvegicus, Wistar, Cerebral cortex, Membrane; conditions: Not Active = under 50% inhibition at 10 µM
Melanocortin receptor 4 = Melanocortin receptor 4 (Homo sapiens, UniProt P32245); assay type: cell membranes, Membrane; conditions: hek293; further: in other assays of this panel Not Active means under 50% inhibition at 10 µM
Sequence of Melanocortin receptor 4 (P32245 whole entry): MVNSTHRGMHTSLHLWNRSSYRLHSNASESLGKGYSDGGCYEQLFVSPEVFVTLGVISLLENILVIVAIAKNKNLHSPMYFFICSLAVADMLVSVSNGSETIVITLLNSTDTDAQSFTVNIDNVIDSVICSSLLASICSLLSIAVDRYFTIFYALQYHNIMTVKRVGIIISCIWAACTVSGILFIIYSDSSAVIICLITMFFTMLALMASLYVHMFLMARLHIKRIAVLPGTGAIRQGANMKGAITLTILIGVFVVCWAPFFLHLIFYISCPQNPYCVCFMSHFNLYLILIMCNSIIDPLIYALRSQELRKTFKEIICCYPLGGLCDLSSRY

[5] = biological target: T2, Angiotensin-converting enzyme (Oryctolagus cuniculus, UniProt P12822); assay type: tissue-based, Lung;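 further: enzymatic inhibition of angiotensin-converting enzyme measured with FAPGG as the substrate; in other assays of this panel Not Active means under 50% inhibition at 10 µM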
T2 sequence (P12822 whole entry): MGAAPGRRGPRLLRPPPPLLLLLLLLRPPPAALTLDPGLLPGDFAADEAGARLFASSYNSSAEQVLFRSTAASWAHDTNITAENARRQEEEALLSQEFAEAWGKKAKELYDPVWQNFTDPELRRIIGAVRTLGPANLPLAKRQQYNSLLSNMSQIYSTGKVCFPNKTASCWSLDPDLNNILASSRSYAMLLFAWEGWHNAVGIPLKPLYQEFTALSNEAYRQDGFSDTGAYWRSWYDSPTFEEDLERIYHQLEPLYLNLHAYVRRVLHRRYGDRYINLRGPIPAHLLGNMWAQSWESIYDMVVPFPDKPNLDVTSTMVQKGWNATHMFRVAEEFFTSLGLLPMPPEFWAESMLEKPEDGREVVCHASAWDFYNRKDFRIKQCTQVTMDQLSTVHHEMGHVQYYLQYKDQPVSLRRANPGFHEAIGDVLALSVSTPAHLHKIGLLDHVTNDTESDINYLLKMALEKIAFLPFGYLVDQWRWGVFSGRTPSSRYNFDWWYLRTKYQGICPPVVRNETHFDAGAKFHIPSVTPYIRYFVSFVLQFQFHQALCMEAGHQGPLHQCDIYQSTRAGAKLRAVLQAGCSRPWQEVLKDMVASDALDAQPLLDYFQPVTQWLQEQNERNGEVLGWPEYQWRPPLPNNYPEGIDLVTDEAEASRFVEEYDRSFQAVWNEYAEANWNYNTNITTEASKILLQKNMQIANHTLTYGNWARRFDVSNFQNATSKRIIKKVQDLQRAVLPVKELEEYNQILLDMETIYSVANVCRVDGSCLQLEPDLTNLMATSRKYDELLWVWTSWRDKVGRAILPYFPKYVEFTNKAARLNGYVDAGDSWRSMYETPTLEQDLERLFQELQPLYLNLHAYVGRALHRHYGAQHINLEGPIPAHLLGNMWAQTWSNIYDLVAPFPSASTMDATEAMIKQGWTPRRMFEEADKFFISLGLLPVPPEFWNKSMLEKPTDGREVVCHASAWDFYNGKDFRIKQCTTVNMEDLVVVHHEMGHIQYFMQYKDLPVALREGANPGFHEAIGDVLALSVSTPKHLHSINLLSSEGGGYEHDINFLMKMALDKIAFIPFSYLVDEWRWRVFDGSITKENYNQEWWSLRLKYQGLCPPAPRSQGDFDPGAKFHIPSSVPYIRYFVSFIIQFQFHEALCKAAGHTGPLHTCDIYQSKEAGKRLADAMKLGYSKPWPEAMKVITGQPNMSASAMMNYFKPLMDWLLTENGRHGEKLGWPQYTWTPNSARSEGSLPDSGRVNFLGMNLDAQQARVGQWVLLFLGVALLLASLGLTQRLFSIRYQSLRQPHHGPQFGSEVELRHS

Sequence of Mitogen-activated protein kinase 3 (P27361 whole entry): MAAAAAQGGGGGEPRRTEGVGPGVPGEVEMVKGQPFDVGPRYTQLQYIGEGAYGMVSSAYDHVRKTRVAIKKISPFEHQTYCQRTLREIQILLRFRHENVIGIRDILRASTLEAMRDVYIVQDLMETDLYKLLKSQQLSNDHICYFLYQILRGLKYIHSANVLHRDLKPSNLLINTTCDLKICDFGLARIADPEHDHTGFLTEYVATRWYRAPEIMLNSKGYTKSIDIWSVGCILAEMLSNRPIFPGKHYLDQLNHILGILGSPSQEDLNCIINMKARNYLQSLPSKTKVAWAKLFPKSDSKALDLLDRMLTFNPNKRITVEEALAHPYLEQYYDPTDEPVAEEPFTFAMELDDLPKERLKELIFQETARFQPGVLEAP

SMILES | IC50 [1] | IC50 [2] | Ki [2] | IC50 [3] | IC50 [4] | Ki [4] | IC50 (Melanocortin receptor 4) | IC50 [5] | IC50 ([4]; read-out: IC50) | Ki ([4]; read-out: Ki)
CC(O)COC[C@H]1O[C@@H]2O[C@H]3[C@H](O)[C@@H](O)[C@@H](O[C@H]4[C@H](O)[C@@H](O)[C@@H](O[C@H]5[C@H](O)[C@@H](O)[C@@H](O[C@H]6[C@H](O)[C@@H](O)[C@@H](O[C@H]7[C@H](O)[C@@H](O)[C@@H](O[C@H]8[C@H](O)[C@@H](O)[C@@H](O[C@H]1[C@H](O)[C@H]2O)O[C@@H]8COCC(C)O)O[C@@H]7COCC(C)O)O[C@@H]6COCC(C)O)O[C@@H]5COCC(C)O)O[C@@H]4COCC(C)O)O[C@@H]3COCC(C)O (stereo partly drawn) [2-HYDROXYPROPYL-BETA-CYCLODEXTRIN] | Not Active | Not Active | Not Active | Not Active | Not Active | Not Active | Not Active | Not Active | – | –
C[C@]12CC[C@@H]3c4ccc(O)cc4CC[C@H]3[C@@H]1C[C@@H](O)[C@@H]2O [ESTRIOL] | Not Active | Not Active | Not Active | Not Active | Not Active | Not Active | Not Active | Not Active | – | –
O=C(O)P(=O)(O)O [FOSCARNET] | Not Active | Not Active | Not Active | Not Active | Not Active | Not Active | Not Active | Not Active | – | –
CC1=NN(c2ccccc2)C(=O)C1 [EDARAVONE] | Not Active | Not Active | Not Active | Not Active | Not Active | Not Active | Not Active | Not Active | – | –
CCCNC(C)C(=O)Nc1ccccc1C (stereo unspecified) [PRILOCAINE] | Not Active | Not Active | Not Active | Not Active | Not Active | Not Active | Not Active | Not Active | – | –
C[C@@H]1C/C=C/C=C/C=C/C=C/[C@H](O[C@@H]2O[C@H](C)[C@@H](O)[C@H](N)[C@@H]2O)C[C@@H]2O[C@](O)(C[C@@H](O)C[C@H]3O[C@@H]3/C=C/C(=O)O1)C[C@H](O)[C@H]2C(=O)O [NATAMYCIN] | Not Active | Not Active | Not Active | Not Active | Not Active | Not Active | Not Active | Not Active | – | –
C[C@H]1O[C@H](O[C@H]2[C@H](O)[C@@H](O)[C@@H](O[C@H]3[C@H](O)[C@@H](O)C(O)O[C@@H]3CO)O[C@@H]2CO)[C@H](O)[C@@H](O)[C@@H]1N[C@H]1C=C(CO)[C@@H](O)[C@H](O)[C@H]1O (stereo partly specified) [ACARBOSE] | Not Active | Not Active | Not Active | Not Active | Not Active | Not Active | Not Active | Not Active | – | –
CN(C)C(=N)NC(=N)N [METFORMIN] | Not Active | Not Active | Not Active | Not Active | Not Active | Not Active | Not Active | Not Active | – | –
CCc1ccc(CCOc2ccc(CC3SC(=O)NC3=O)cc2)nc1 (stereo unspecified) [PIOGLITAZONE] | Not Active | Not Active | Not Active | Not Active | Not Active | Not Active | Not Active | Not Active | – | –
CN1CCN(C(c2ccccc2)c2ccccc2)CC1 [CYCLIZINE] | Not Active | Not Active | Not Active | Not Active | Not Active | Not Active | Not Active | Not Active | – | –
Cn1c(=O)c2c(ncn2C)n(C)c1=O [CAFFEINE] | Not Active | Not Active | Not Active | Not Active | Not Active | Not Active | Not Active | Not Active | – | –
COc1cc(OC)c(C(=O)CCCN2CCCC2)c(OC)c1 [BUFLOMEDIL] | Not Active | Not Active | Not Active | Not Active | Not Active | Not Active | Not Active | Not Active | – | –
C[C@]12CC[C@H]3[C@@H](CCC4=CC(=O)CC[C@@H]43)[C@@H]1CC[C@@H]2O [NANDROLONE] | Not Active | Not Active | Not Active | Not Active | Not Active | Not Active | Not Active | Not Active | – | –
CS(=O)(=O)Nc1ccc([N+](=O)[O-])cc1Oc1ccccc1 [NIMESULIDE] | Not Active | Not Active | Not Active | Not Active | Not Active | Not Active | Not Active | Not Active | – | –
CN1CCC(=C2c3ccccc3CC(=O)c3sccc32)CC1 [KETOTIFEN] | Not Active | Not Active | Not Active | Not Active | Not Active | Not Active | Not Active | Not Active | – | –
NC12CC3CC(CC(C3)C1)C2 [AMANTADINE] | Not Active | Not Active | Not Active | Not Active | – | – | Not Active | Not Active | 32 µM | 21.7 µM
NC(=O)N1c2ccccc2CC(=O)c2ccccc21 [OXCARBAZEPINE] | Not Active | Not Active | Not Active | Not Active | Not Active | Not Active | Not Active | Not Active | – | –
